Results published in patent US20030139438A1, “Diagnosis of the parkinsonian condition” (priority 2001, published 2003).

How the values were obtained:
[1] = system: actions of metenkephalin; assay: Naloxone challenge in reserpine-treated rat model of pre-symptomatic subjects; type: in vivo, rats
Method: (§1) Reserpine (3 mg/kg, s.c, in 3% glacial acetic acid) was administered to rats to deplete dopamine levels.
(§2) In this situation the animals represent a model of pre-symptomatic subjects, i.e. they have a dopamine depletion but no symptoms.
The parkinsonan symptoms were reversible and were not observed one hour after the naloxone injection where the animals returned to the presymptomatic state.

[2] = system: PPE-A mRNA; assay: Preproenkephalin-A in situ hybridization in striatum; type: in vivo, Macaca fascicularis
Method: (§3) Five monkeys were killed at the beginning of the study and were considered as day 0 (D0) controls. The remaining 20 were treated with daily (9:00 am) injections of MPTP hydrochloride (0.2 mg/kg, i.v.; Sigma, St Louis, Mo.) in saline according to a previously described protocol (Bezard et al., 1997 Neuroscience 81 p 399-404; Bezard et al., 1997 Brain Res. 766 p 107-112; and Bezard et al., 1999 Eur. J. Neurosci. 11 p 2167-2170). This protocol derives a reproducible MPTP cumulative dosing regime that leads to the first appearance of parkinsonian clinical signs after 15±1 injections (3.0±0.02 mg/kg). Five presymptomatic monkeys were killed on day 6 (i.e., after 6 injections; D6 Group), five presymptomatic monkeys at day 12 (i.e. after 12 injections; D12 group), five at day 15 after appearance of overt symptoms (i.e. after 15 injections; D15 group), and the remaining five fully parkinsonian monkeys at day 25 (i.e. after 15 injections; D25). All animals were killed by sodium pentobarbital overdose (150 mg/kg, i.v.) and the brains were removed quickly after death. Each brain was bisected along the midline and the two hemispheres were immediately frozen by immersion in isopentane (−45° C.) and then stored at −80° C. Tissue was sectioned at 20 μm in a cryostat at −17° C., thaw-mounted onto gelatin-subbed slides, dried on a slide warmer and stored at −80° C.
In situ hybridization histochemistry was performed as previously described by Henry et al. (1999 Exp. Neurol. 155 p204-220) using a ^35S-radiolabeled oligonucleotide probe (Gibco BRL) corresponding to amino acids 130-145 of the human sequence of PPE-A. One microliter of the oligonucleotide was tailed by the isotope of 37° C. in a mixture containing 10 μl sterile water, 12.5 μl reaction buffer (sodium cocodylate 120 mM and dithiothreitol 100 mM), and 2 μl terminal deoxynucleotide transferase (all reagents DuPont/NEN) with 7 μl of [^35S] ATP (82.5 μCi, NEN). […] One microliter of this solution was counted by a liquid scintillation counter (Tricarb, 1500 Packard) to asses the efficiency of labeling. […]
Densitomeric analysis of autoradiographs was performed using an image analysis system (Image Pro Plus, v3.0.01, Media Cybernetics L.P., Atlanta, Ga.) as previously described (Henry et al., supra). The optical density of the autoradiogram was assessed for the striatum at three rostrocaudal levels in accordance with the functional organisation of the striatum: a rostral level, including the caudate, putamen, and nucleus accumbens; a midlevel, including the caudate, putamen, and GPe; and a caudal level including the body of the caudate, the putamen, and both the GPe and GPi. […] Four sections per animal, per striatal level were analyzed by an examiner blind with regard to experimental condition. […]

[3] = system: striatal DA content; assay: Neurochemical analysis of striatal DA by HPLC with electrochemical detection; type: in vivo, Macaca fascicularis
Method: as §3
The extent of striatal DA denervation was assessed by measuring levels of DA, 3,4-dihydroxyphenylacetic acid (DOPAC) and homovanillic acid (HVA) in both the caudate nucleus and the putamen using high-pressure liquid chromatography with electrochemical detection as previously described (Bezard et al., 1997 Neuroscience 81 p399-404) with minor modifications. […] Pellets were retained for quantification of protein content by the Bradford assay (Bezard et al., 1997 Neuroscience 81 p 399-404). […] Concentrations of DA and metabolites were calculated using a computing integrator (Gold Nouveau V 1.6, Beckman). Mean and SEM values were calculated for both putamen and caudate nucleus for each group.

[4] = system: cynomolgus monkeys; assay: Bradykinesia test (time to pick up three pieces of fruit) after chronic MPTP; type: in vivo, Macaca fascicularis; details: maximum 60 s
Method: (§4) Experiments were conducted on twenty five female cynomolgus monkeys (Macaca fascicularis, Shared Animal Health, Beijing, PR of China; mean age=3.1. ±0.3 years; mean weight=2.8 ±0.2 kg). Animals were housed in individual primate cages under controlled conditions of humidity (50±5%0, temperature (24 ±1° C.), and light (12 h light/dark cycles), food and water were available ad libitum and their care supervised by veterinarians skilled in the healthcare and maintenance of nonhuman primates. Experiments were carried out in accordance with European Economic Community (86/6091/EEC) guidelines for care of laboratory animals. The effect of nontreatment on both motor behaviour and PPE-A expression had been previously compared with that of the administration of saline in order to rule out any possible interference. Accordingly MPTP-treated animals were compared with “nontreated” controls in this study. This procedure has been chosen to minimise the number of animals used. In addition, brain tissues acquired for the present experiments are being used for further experiments.
as §3, with “Tissue was sectioned at 20 μm in a cryostat at −17° C., thaw-mounted onto gelatin-subbed slides, dried on a slide warmer and stored at −80° C.” left out
(§5) Animal behavior was assessed daily (2 p.m) on a parkinsonian monkey rating scale (Bezard et al., 1997 Neuroscience 81 p399-404; and Bezard et al., 1997 Neuroreport 8 p435-438) using videotape recordings of monkeys in their cages in addition to clinical neurological evaluation. During each session two examiners evaluated the animals' levels of motor performance, coaxing them to perform various tasks by offering appetizing fruit. […]

[5] = system: cynomolgus monkeys; assay: Parkinsonian monkey rating scale after chronic MPTP administration; type: in vivo, Macaca fascicularis; details: scale 0-25
Method: as §4
as §3, with “Tissue was sectioned at 20 μm in a cryostat at −17° C., thaw-mounted onto gelatin-subbed slides, dried on a slide warmer and stored at −80° C.” left out
as §5

[6] = system: dopamine levels; assay: Reserpine-induced dopamine depletion in rats; type: in vivo; details: 3 mg/kg s.c., after 48 hours
Method: as §1, §2

[7] = system: opioid receptor; assay: Naltrexone challenge in reserpine-treated rats, locomotor activity (Benwick monitors); type: in vivo, Sprague-Dawley rats
Method: Reserpine was administered to rats to deplete dopamine levels. […] In this situation the animals represent a model of pre-symptomatic patients, i.e. they have a dopamine depletion but no overt symptoms.
Male Sprague-Dawley rats were split into two groups A and B. Rats in both groups received a subcutaneous administration of reserpine (3 mg/kg). The rats were allowed to recover for 48 hours post reserpine treatment at which point they are considered to represent a model of pre-symptomatic Parkinson's disease.
After the 48 hours Group A were treated with vehicle (water) and group B were treated with naltrexone (10 mg/kg) and placed in locomotor monitoring apparatus (see below).
The locomotion of the rats in Groups A and B following either vehicle or naltrexone treatment was measured over the 5 minute period immediately after drug administration using Benwick locomotor monitors. These locomotion monitors consist of a visually-shielded open-field arena, the perimeter of which is surrounded by a series of infra-red beams arranged at 5 cm intervals. PC-based software (Amlogger) assesses the number of beams broken. The number of beams broken as part of a locomotor movement (activity counts) was measured.

C=CCN1CC[C@]23c4c5ccc(O)c4O[C@H]2C(=O)CC[C@@]3(O)[C@H]1C5 [naloxone]
parkinsonian symptoms ([1]; 10 mg/kg i.p., rats 48 hours after reserpine 3 mg/kg s.c.): parkinsonian symptoms became manifest
parkinsonian symptoms one hour after the injection ([1]; 10 mg/kg i.p., reserpine-treated rats): not observed
parkinsonian symptoms in control animals not treated with reserpine ([1]; naloxone without reserpine): No parkinsonian symtoms were seen

CN1CC=C(c2ccccc2)CC1 [MPTP, 1-methyl-4-phenyl-1,2,3,6-tetrahydropyridine]
PPE-A mRNA levels in striatum compared to D0 ([2]; D6 group): no significant difference
PPE-A mRNA levels in striatum compared to D0 ([2]; D12 group, asymptomatic): sharp increase
PPE-A mRNA levels in striatum compared to D0 ([2]; D15 group, mild parkinsonian symptoms): same distribution of increased levels
PPE-A mRNA levels in striatum compared to D0 ([2]; D25 group, fully parkinsonian): pronounced increases
reduction of DA level in the putamen compared to D0 ([3]; D6 group): 42.7%
depletion of DA in the putamen compared to D0 ([3]; D12 group, asymptomatic): 56.3%
decrease of DA level in the putamen compared to D0 ([3]; D25 group): 97.9%
mean duration of the bradykinesia test ([4]; D6 group, D0 controls 3.0±0.4 s): 2.4 ± 0.3 s
mean duration of the bradykinesia test ([4]; D12 group, D0 controls 3.0±0.4 s): 2.6 ± 0.5 s
mean duration of the bradykinesia test ([4]; D15 group): 19.9 ± 9.1 s
mean duration of the bradykinesia test ([4]; D25 group, could not perform the test): 60 s
parkinsonian score ([5]; D6 group, 6 daily injections 0.2 mg/kg i.v.): 0
parkinsonian score ([5]; D12 group, 12 daily injections 0.2 mg/kg i.v.): 0
parkinsonian score, median (range) ([5]; D15 group, 15 injections 0.2 mg/kg i.v.): 11 (range 10-14)
parkinsonian score, median (range) ([5]; D25 group, killed at day 25 after 15 injections): 17 (range 15-19)

COC(=O)[C@H]1[C@H]2C[C@@H]3c4[nH]c5cc(OC)ccc5c4CCN3C[C@H]2C[C@@H](OC(=O)c2cc(OC)c(OC)c(OC)c2)[C@@H]1OC [Reserpine]
dopamine level [6]: not less than 20 % of normal levels

O=C1CC[C@@]2(O)[C@H]3Cc4ccc(O)c5c4[C@@]2(CCN3CC2CC2)[C@H]1O5 [naltrexone]
parkinsonian symptoms ([7]; 10 mg/kg i.p., rats 48 hours after reserpine): parkinsonian symptoms appeared
activity counts versus vehicle treated group ([7]; 10 mg/kg, 5 minute period after administration, rats 48 hours after reserpine 3 mg/kg s.c., P<0.01): significantly less
